Experiments:
[1] = biological target: T1, BRD4 bromo domain 2 [BRD4(2)] (Homo sapiens, UniProt O60885); assay: BRD4/acetylated peptide H4 binding assay (TR-FRET), BRD4 bromo domain 2; conditions: inhibition of BRD4(2)/Ac-H4 peptide interaction
T1 construct: N-terminally His6-tagged BRD4(2) (amino acids 357-445); made in house; host or cells: E. coli
Procedure, shortened: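 Binding of His6-BRD4(2) (aa 357-445, 100 nM final) to biotinylated tetra-acetylated H4 peptide read by TR-FRET (665/620 nm). Compound preincubated 10 min at 22 °C, then 1 h at 22 °C plus ≥3 h at 4 °C. Eleven concentrations (0.1 nM–20 μM) in duplicate; IC50 by 4-parameter fit.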

MOLP-8 cells = assay: Cell proliferation assay (alamarBlue), MOLP-8; assay type: cell-based; conditions: Homo sapiens; MOLP-8 (multiple myeloma), 120 hours
Protocol: In accordance with the invention, the ability of the substances to inhibit cell proliferation was determined. Cell viability was determined by means of the alamarBlue® reagent (Invitrogen) in a Victor X3 Multilabel Reader (Perkin Elmer). The excitation wavelength was 530 nm and the emission wavelength […].
The MOLP-8 cells (DSMZ, ACC 569) were sown at a concentration of 4000 cells/well in 100 μl of growth medium (RPMI1640, 20% FCS) on 96-well microtitre plates.
After overnight incubation at 37° C., the fluorescence values were determined (CI values). Then the plates were treated with various substance dilutions (1E-5 M, 3E-6 M, 1E-6 M, 3E-7 M, 1E-7 M, 3E-8 M, 1E-8 M) and incubated at 37° C. over 96 hours (MOLM-13, B16F10, CHL-1 cells) or 120 hours (MOLP-8 cells). Subsequently, the fluorescence values were determined (CO values). For the data analysis, the CI values were subtracted from the CO values and the results were compared between cells which had been treated with various dilutions of the substance or only with buffer solution. The IC50 values (substance concentration needed for 50% inhibition of cell proliferation) were calculated therefrom.

IC50 [1] [nM]	SMILES	IC50 (MOLP-8 cells) [nM]
32	C[C@@H]1C(=O)N(C)c2ccc(Nc3cccc(S(=O)(=O)N(C)C)c3)nc2N1C1CCOCC1 [Example 6, 3-{[(3R)-1,3-Dimethyl-2-oxo-4-(tetrahydro-2H-pyran-4-yl)-1,2,3,4-tetrahydropyrido[2,3-b]pyrazin-6-yl]amino}-N,N-dimethylbenzenesulphonamide]	37
54	C[C@@H]1C(=O)N(C)c2ccc(Nc3cccc(S(=O)(=O)N4CCOCC4)c3)nc2N1C1CCOCC1 [Example 9, (3R)-1,3-Dimethyl-6-{[3-(morpholin-4-ylsulphonyl)phenyl]amino}-4-(tetrahydro-2H-pyran-4-yl)-3,4-dihydropyrido[2,3-b]pyrazin-2(1H)-one]	40
62	COc1ccc(CN2c3cc(Nc4cccc(S(=O)(=O)N(C)C)c4)ccc3N(C)C(=O)[C@H]2C)cc1 [Example 10, 3-{[(3R)-4-(4-Methoxybenzyl)-1,3-dimethyl-2-oxo-1,2,3,4-tetrahydroquinoxalin-6-yl]amino}-N,N-dimethylbenzenesulphonamide]	82
68	C[C@@H]1C(=O)N(C)c2ccc(Nc3cccc(S(=O)(=O)N4CCN(C)CC4)c3)nc2N1C1CCOCC1 [Example 12, (3R)-1,3-Dimethyl-6-({3-[(4-methylpiperazin-1-yl)sulphonyl]phenyl}amino)-4-(tetrahydro-2H-pyran-4-yl)-3,4-dihydropyrido[2,3-b]pyrazin-2(1H)-one]	126
218	C[C@@H]1C(=O)N(C)c2ccc(Nc3cccc(C(=O)NC4CCN(C)CC4)c3)nc2N1C1CCOCC1 [Example 13, 3-{[(3R)-1,3-Dimethyl-2-oxo-4-(tetrahydro-2H-pyran-4-yl)-1,2,3,4-tetrahydropyrido[2,3-b]pyrazin-6-yl]amino}-N-(1-methylpiperidin-4-yl)benzamide]	306
170	C[C@@H]1C(=O)N(C)c2ccc(Nc3cccc(C(=O)N[C@H]4CC[C@H](N5CCN(CC6CC6)CC5)CC4)c3)nc2N1C1CCOCC1 [Example 14, N-{trans-4-[4-(Cyclopropylmethyl)piperazin-1-yl]cyclohexyl}-3-{[(3R)-1,3-dimethyl-2-oxo-4-(tetrahydro-2H-pyran-4-yl)-1,2,3,4-tetrahydropyrido[2,3-b]pyrazin-6-yl]amino}benzamide]	240
196	C[C@@H]1C(=O)N(C)c2ccc(Nc3cccc(C(=O)N4CCN(C)CC4)c3)nc2N1C1CCOCC1 [Example 15, (3R)-1,3-Dimethyl-6-({3-[(4-methylpiperazin-1-yl)carbonyl]phenyl}amino)-4-(tetrahydro-2H-pyran-4-yl)-3,4-dihydropyrido[2,3-b]pyrazin-2(1H)-one]	313
174	COc1ccc(C(=O)NC2CCN(C)CC2)cc1Nc1ccc2c(n1)N(C1CCOCC1)[C@H](C)C(=O)N2C [Example 16, 3-{[(3R)-1,3-Dimethyl-2-oxo-4-(tetrahydro-2H-pyran-4-yl)-1,2,3,4-tetrahydropyrido[2,3-b]pyrazin-6-yl]amino}-4-methoxy-N-(1-methylpiperidin-4-yl)benzamide]	306
52	C[C@@H]1C(=O)N(C)c2ccc(Nc3cccc(S(=O)(=O)NC4CCN(C)CC4)c3)nc2N1C1CCOCC1 [Example 20, 3-{[(3R)-1,3-Dimethyl-2-oxo-4-(tetrahydro-2H-pyran-4-yl)-1,2,3,4-tetrahydropyrido[2,3-b]pyrazin-6-yl]amino}-N-(1-methylpiperidin-4-yl)benzenesulphonamide]	190
53	C[C@@H]1C(=O)N(C)c2ccc(Nc3cccc(S(=O)(=O)NCCN(C)C)c3)nc2N1C1CCOCC1 [Example 21]	175
39	CCNS(=O)(=O)c1cccc(Nc2ccc3c(n2)N(C2CCOCC2)[C@H](C)C(=O)N3C)c1 [Example 23, 3-{[(3R)-1,3-dimethyl-2-oxo-4-(tetrahydro-2H-pyran-4-yl)-1,2,3,4-tetrahydropyrido[2,3-b]pyrazin-6-yl]amino}-N-ethylbenzenesulphonamide]	37
55	C[C@@H]1C(=O)N(C)c2ccc(Nc3cccc(S(=O)(=O)N4CCCC4)c3)nc2N1C1CCN(C)CC1 [Example 24, (3R)-1,3-Dimethyl-4-(1-methylpiperidin-4-yl)-6-{[3-(pyrrolidin-1-ylsulphonyl)phenyl]amino}-3,4-dihydropyrido[2,3-b]pyrazin-2(1H)-one]	11
56	COc1ccc(S(=O)(=O)N2CCOCC2)cc1Nc1ccc2c(n1)N(C1CCN(C)CC1)[C@H](C)C(=O)N2C [Example 25, (3R)-6-{[2-Methoxy-5-(morpholin-4-ylsulphonyl)phenyl]amino}-1,3-dimethyl-4-(1-methylpiperidin-4-yl)-3,4-dihydropyrido[2,3-b]pyrazin-2(1H)-one]	11
31	C[C@@H]1C(=O)N(C)c2ccc(Nc3cccc(S(=O)(=O)NC4CC4)c3)nc2N1C1CCOCC1 [Example 26, N-Cyclopropyl-3-{[(3R)-1,3-dimethyl-2-oxo-4-(tetrahydro-2H-pyran-4-yl)-1,2,3,4-tetrahydropyrido[2,3-b]pyrazin-6-yl]amino}benzenesulphonamide]	24
40	C[C@@H]1C(=O)N(C)c2ccc(Nc3cccc(S(=O)(=O)N4CCCC4)c3)nc2N1C1CCOCC1 [Example 27, (3R)-1,3-Dimethyl-6-{[3-(pyrrolidin-1-ylsulphonyl)phenyl]amino}-4-(tetrahydro-2H-pyran-4-yl)-3,4-dihydropyrido[2,3-b]pyrazin-2(1H)-one]	30
53	COc1ccc(S(=O)(=O)N2CCOCC2)cc1Nc1ccc2c(n1)N(C1CCOCC1)[C@H](C)C(=O)N2C [Example 28, (3R)-6-{[2-Methoxy-5-(morpholin-4-ylsulphonyl)phenyl]amino}-1,3-dimethyl-4-(tetrahydro-2H-pyran-4-yl)-3,4-dihydropyrido[2,3-b]pyrazin-2(1H)-one]	18
64	C[C@@H]1C(=O)N(C)c2ccc(Nc3cccc(S(=O)(=O)N4CC(F)(F)C4)c3)nc2N1C1CCN(C)CC1 [Example 29, (3R)-6-({3-[(3,3-Difluoroazetidin-1-yl)sulphonyl]phenyl}amino)-1,3-dimethyl-4-(1-methylpiperidin-4-yl)-3,4-dihydropyrido[2,3-b]pyrazin-2(1H)-one]	41
58	COc1ccc(S(=O)(=O)N2CC3(COC3)C2)cc1Nc1ccc2c(n1)N(C1CCOCC1)[C@H](C)C(=O)N2C [Example 30, (3R)-6-{[2-Methoxy-5-(2-oxa-6-azaspiro[3.3]hept-6-ylsulphonyl)phenyl]amino}-1,3-dimethyl-4-(tetrahydro-2H-pyran-4-yl)-3,4-dihydropyrido[2,3-b]pyrazin-2(1H)-one]	96
76	C[C@@H]1C(=O)N(C)c2ccc(Nc3cccc(S(=O)(=O)NC4CCN(C)CC4)c3)nc2N1Cc1ccccc1 [Example 33, 3-{[(3R)-4-benzyl-1,3-dimethyl-2-oxo-1,2,3,4-tetrahydropyrido[2,3-b]pyrazin-6-yl]amino}-N-(1-methylpiperidin-4-yl)benzenesulphonamide]	12
125	CC(C)N1c2nc(Nc3cccc(S(=O)(=O)N[C@H]4CC[C@H](N5CCN(CC6CC6)CC5)CC4)c3)ccc2N(C)C(=O)[C@H]1C [Example 34, N-{trans-4-[4-(cyclopropylmethyl)piperazin-1-yl]cyclohexyl}-3-{[(3R)-4-isopropyl-1,3-dimethyl-2-oxo-1,2,3,4-tetrahydropyrido[2,3-b]pyrazin-6-yl]amino}-benzenesulphonamide]	20
69	C[C@@H]1C(=O)N(C)c2ccc(Nc3cccc(S(=O)(=O)N[C@H]4CC[C@H](N5CCN(CC6CC6)CC5)CC4)c3)nc2N1C1CCOCC1 [Example 35, N-{trans-4-[4-(cyclopropylmethyl)-piperazin-1-yl]cyclohexyl}-3-{[(3R)-1,3-dimethyl-2-oxo-4-(tetrahydro-2H-pyran-4-yl)-1,2,3,4-tetrahydropyrido[2,3-b]pyrazin-6-yl]amino}-benzenesulphonamide]	23
16	C[C@@H]1C(=O)N(C)c2ccc(Nc3cccc(S(=O)(=O)N4CCN(CC(F)(F)F)CC4)c3)nc2N1C1CCOCC1 [Example 37, (3R)-1,3-dimethyl-4-(tetrahydro-2H-pyran-4-yl)-6-[(3-{[4-(2,2,2-trifluoroethyl)piperazin-1-yl]sulphonyl}phenyl)-amino]-3,4-dihydropyrido-[2,3-b]pyrazin-2(1H)-one]	65
48	C[C@@H]1C(=O)N(C)c2ccc(Nc3cccc(S(=O)(=O)N[C@H]4CC[C@H](N5CCN(CC6CC6)CC5)CC4)c3)nc2N1Cc1ccccc1 [Example 38, 3-{[(3R)-4-benzyl-1,3-dimethyl-2-oxo-1,2,3,4-tetrahydropyrido[2,3-b]pyrazin-6-yl]amino}-N-{trans-4-[4-(cyclopropyl-methyl)piperazin-1-yl]cyclohexyl}-benzenesulphonamide]	12
